From patent US12570642B2, “GLP-IR modulating compounds” (Gilead Sciences, Inc., priority 2021, dated 2026) come the findings set out here.

For this assay, the target named is GLP-1R (Homo sapiens, UniProt P43220). Put plainly: GLP-1R Activation - cAMP Assay. Conditions: each compound run on one of the two cAMP assays (Assay 1 or Assay 2, not specified). Format: cell-based. The method in brief: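 CHO cells stably expressing GLP-1R, plated at 1,000 cells/well overnight, then equilibrated 1 h in HBSS with 20 mM Hepes and 0.1% BSA. Agonist added as 10-point dose response for 30 min at 37 °C. cAMP measured by HTRF (Cisbio Gs Dynamic kit); EC50 from sigmoidal fit.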

Where [1] appears, read: cAMP increase in CHO cells stably expressing GLP-1R.

SMILES strings stand for the structures.

Chain of GLP-1R (P43220 24-463): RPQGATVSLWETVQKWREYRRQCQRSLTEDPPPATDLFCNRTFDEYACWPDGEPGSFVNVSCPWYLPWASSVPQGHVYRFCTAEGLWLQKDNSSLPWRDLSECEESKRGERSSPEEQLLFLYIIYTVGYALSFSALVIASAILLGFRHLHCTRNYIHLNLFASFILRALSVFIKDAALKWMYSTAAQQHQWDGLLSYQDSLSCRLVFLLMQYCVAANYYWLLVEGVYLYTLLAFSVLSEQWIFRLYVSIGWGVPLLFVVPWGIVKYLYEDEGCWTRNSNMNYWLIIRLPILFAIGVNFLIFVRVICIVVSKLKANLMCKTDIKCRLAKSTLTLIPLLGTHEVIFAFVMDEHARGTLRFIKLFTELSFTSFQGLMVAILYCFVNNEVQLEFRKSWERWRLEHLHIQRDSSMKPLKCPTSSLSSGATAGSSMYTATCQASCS

`CO[C@H]1COC[C@H]1n1c(Cc2cc(F)c(-c3ccc(F)c(OCc4ccc(Cl)cc4F)n3)cc2F)nc2ccc(C(=O)O)cc21` [Example 534, 2-(4-(6-((4-chloro-2-fluorobenzyl)oxy)-5-fluoropyridin-2-yl)-2,5-difluorobenzyl)-1-((3R,4R)-4-methoxytetrahydrofuran-3-yl)-1H-benzo[d]imidazole-6-carboxylic acid]: a half-maximal response under setting [1] (EC50) required 0.353 nM.

Turning to `CC1(C)COCC1n1c(Cc2cc(F)c(-c3cccc(OCc4ccc(C#N)cc4F)n3)cc2F)nc2c(C#CC3CC3)cc(C(=O)O)cc21` (stereo not shown) [Example 48, 2-(4-(6-((4-cyano-2-fluorobenzyl)oxy)pyridin-2-yl)-2,5-difluorobenzyl)-4-(cyclopropylethynyl)-1-(4,4-dimethyltetrahydrofuran-3-yl)-1H-benzo[d]imidazole-6-carboxylic Acid], under setting [1], the EC50 was found to be 0.21 nM.

The compound `CC1(C)COC[C@H]1n1c(Cc2cc(F)c(-c3ccc(F)c(OCc4ccc(C(F)(F)F)cc4)n3)cc2F)nc2ccc(C(=O)O)cc21` [Example 536, (S)-2-(2,5-difluoro-4-(5-fluoro-6-((4-(trifluoromethyl)benzyl)oxy)pyridin-2-yl)benzyl)-1-(4,4-dimethyltetrahydrofuran-3-yl)-1H-benzo[d]imidazole-6-carboxylic acid] gave an EC50 under setting [1] of 0.083 nM.

`COCCn1c(Cc2cc(F)c(-c3cc(Cl)cc(OCc4ccc(C#N)cc4F)n3)cc2F)nc2ccc(C(=O)O)cc21` [Example 42, 2-(4-(4-chloro-6-((4-cyano-2-fluorobenzyl)oxy)pyridin-2-yl)-2,5-difluorobenzyl)-1-(2-methoxyethyl)-1H-benzo[d]imidazole-6-carboxylic Acid] returned an EC50 under setting [1] of 4.25 nM.

Turning to `CC1(C)COC[C@H]1n1c(Cc2cc(F)c(-c3ccc(F)c(OCc4ccc(C#N)cc4F)n3)cc2F)nc2c(F)cc(C(=O)O)cc21` [Example 116, 2-[[4-[6-[(4-cyano-2-fluoro-phenyl)methoxy]-5-fluoro-2-pyridyl]-2,5-difluoro-phenyl]methyl]-3-[(3S)-4,4-dimethyltetrahydrofuran-3-yl]-7-fluorobenzimidazole-5-carboxylic Acid], the midpoint of the response under setting [1], the EC50, lay at 0.005 nM.

`CC1(C)COC[C@H]1n1c(Cc2cc(F)c(-c3cccc(OCc4ccc(Cl)c(Cl)c4)n3)cc2F)nc2ccc(C(=O)O)cc21` [Example 393, (S)-2-(4-(6-((3,4-dichlorobenzyl)oxy)pyridin-2-yl)-2,5-difluorobenzyl)-1-(4,4-dimethyltetrahydrofuran-3-yl)-1H-benzo[d]imidazole-6-carboxylic acid]: the EC50 under setting [1] was determined as 0.652 nM.

As to `CC1(C)COC[C@@H]1n1c(Cc2c(F)cc(-c3cccc(OCc4ccc(C#N)cc4F)n3)c(F)c2F)nc2c(F)cc(C(=O)O)cc21` [Example 123], the response under setting [1] was half-maximal at 0.528 nM (EC50).

Regarding `COCCn1c(Cc2cc(F)c(-c3cccc(OCc4cnc(-c5cnn(C)c5)cn4)n3)cc2F)nc2ccc(C(=O)O)cc21` [Example 38, 2-(2,5-difluoro-4-(6-((5-(1-methyl-1H-pyrazol-4-yl)pyrazin-2-yl)methoxy)pyridin-2-yl)benzyl)-1-(2-methoxyethyl)-1H-benzo[d]imidazole-6-carboxylic Acid], under setting [1], the response was half-maximal at 4.02 nM (EC50).

Under setting [1], `COCCn1c(C(F)(F)c2cc(F)c(-c3cccc(OCc4ccc(C#N)cc4F)n3)cc2F)nc2ccc(C(=O)O)cc21` [Example 52] returned an EC50 of 21.3 nM.

For the compound `CC1(C)COC[C@H]1n1c(Cc2cc(F)c(-c3cccc(OCc4c(F)cc(C#N)cc4F)n3)cc2F)nc2ccc(C(=O)O)cc21` [Example 493, (S)-2-(4-(6-((4-cyano-2,6-difluorobenzyl)oxy)pyridin-2-yl)-2,5-difluorobenzyl)-1-(4,4-dimethyltetrahydrofuran-3-yl)-1H-benzo[d]imidazole-6-carboxylic acid], a half-maximal effect under setting [1] (EC50) was put at 0.278 nM.

In the case of `CC1(C)COC[C@H]1n1c(Cc2cc(F)c(-c3ccc(F)c(OCc4ccc(-n5ccnn5)cc4)n3)cc2F)nc2ccc(C(=O)O)cc21` [Example 181, (S)-2-(4-(6-((4-(1H-1,2,3-triazol-1-yl)benzyl)oxy)-5-fluoropyridin-2-yl)-2,5-difluorobenzyl)-1-(4,4-dimethyltetrahydrofuran-3-yl)-1H-benzo[d]imidazole-6-carboxylic Acid], the EC50 under setting [1] turned out to be 0.025 nM.

Take `Cc1cc(Cc2nc3ccc(C(=O)O)cc3n2[C@@H]2COCC2(C)C)c(F)cc1-c1ccnc(OCc2ccc(Cl)cc2F)n1` [Example 284, (S)-2-(4-(2-((4-chloro-2-fluorobenzyl)oxy)pyrimidin-4-yl)-2-fluoro-5-methylbenzyl)-1-(4,4-dimethyltetrahydrofuran-3-yl)-1H-benzo[d]imidazole-6-carboxylic acid]: under setting [1], the EC50 is 0.135 nM.

`CC1(C)COC[C@H]1n1c(Cc2cc(F)c(-c3cccc(OCc4ccc(Cl)cc4F)n3)cc2F)nc2cc(F)c(C(=O)O)cc21` [Example 417, (S)-2-(4-(6-((4-chloro-2-fluorobenzyl)oxy)pyridin-2-yl)-2,5-difluorobenzyl)-1-(4,4-dimethyltetrahydrofuran-3-yl)-5-fluoro-1H-benzo[d]imidazole-6-carboxylic acid] came in with an EC50 under setting [1] of 0.19 nM.

Under “[…]”, `N#Cc1ccc(COc2cccc(-c3cc(F)c(Cc4nc5ccc(C(=O)O)cc5n4[C@@H]4CNC(=O)C4)cc3F)n2)c(F)c1` [Example 2, (S)-2-(4-(6-((4-cyano-2-fluorobenzyl)oxy)pyridin-2-yl)-2,5-difluorobenzyl)-1-(5-oxopyrrolidin-3-yl)-1H-benzo[d]imidazole-6-carboxylic acid] showed an EC50 of 156 nM.

Consider `CC(=O)N1Cc2ccc(COc3cccc(-c4cc(F)c(Cc5nc6ccc(C(=O)O)cc6n5C[C@@H]5CCO5)cc4F)n3)cc2C1` [Example 522, (S)-2-(4-(6-((2-acetylisoindolin-5-yl)methoxy)pyridin-2-yl)-2,5-difluorobenzyl)-1-(oxetan-2-ylmethyl)-1H-benzo[d]imidazole-6-carboxylic acid], for which the EC50 under setting [1] was determined as 0.165 nM.

In turn, `O=C(O)c1ccc2nc(Cc3cc(F)c(-c4cccc(OCc5cnc(-n6ccnn6)cc5Cl)n4)cc3F)n(CCOC(F)F)c2c1` [Example 560, 2-(4-(6-((4-chloro-6-(1H-1,2,3-triazol-1-yl)pyridin-3-yl)methoxy)pyridin-2-yl)-2,5-difluorobenzyl)-1-(2-(difluoromethoxy)ethyl)-1H-benzo[d]imidazole-6-carboxylic acid] yielded an EC50 under setting [1] of 0.192 nM.

Consider `Cc1cc(F)c(COc2cccc(-c3cc(F)c(Cc4nc5ccc(C(=O)O)cc5n4[C@@H]4COCC4(C)C)cc3F)n2)cc1Cl` [Example 459, (S)-2-(4-(6-((5-chloro-2-fluoro-4-methylbenzyl)oxy)pyridin-2-yl)-2,5-difluorobenzyl)-1-(4,4-dimethyltetrahydrofuran-3-yl)-1H-benzo[d]imidazole-6-carboxylic acid], for which the response under setting [1] was half-maximal at 0.8 nM (EC50).

On to `N#Cc1ccc(COc2cccc(-c3cc(F)c(Cc4nc5ccc(C(=O)O)cc5n4[C@@H]4CO[C@@H]5CNC[C@H]45)cc3F)n2)c(F)c1` [Example 80, 2-(4-(6-((4-cyano-2-fluorobenzyl)oxy)pyridin-2-yl)-2,5-difluorobenzyl)-1-((3S,3aR,6aS)-hexahydro-2H-furo[2,3-c]pyrrol-3-yl)-1H-benzo[d]imidazole-6-carboxylic Acid], for which the EC50 under setting [1] came out at 4.91 nM.

Consider `N#Cc1ccc(COc2cccc(-c3cc(F)c(Cc4nc5ccc(C(=O)O)cc5n4[C@@H]4COC[C@H]4C4CC4)cc3F)n2)c(F)c1` [Example 190, 2-(4-(6-((4-cyano-2-fluorobenzyl)oxy)pyridin-2-yl)-2,5-difluorobenzyl)-1-((3S,4S)-4-cyclopropyltetrahydrofuran-3-yl)-1H-benzo[d]imidazole-6-carboxylic acid], for which, under setting [1], it took 0.061 nM to reach a half-maximal effect (EC50).

Compound `CC1(C)COC[C@H]1n1c(Cc2cc(F)c(-c3cccc(OCc4ccc(C#N)cc4)n3)cc2F)nc2cnc(C(=O)O)cc21` [Example 421, (S)-2-(4-(6-((4-cyanobenzyl)oxy)pyridin-2-yl)-2,5-difluorobenzyl)-1-(4,4-dimethyltetrahydrofuran-3-yl)-1H-imidazo[4,5-c]pyridine-6-carboxylic acid] displayed an EC50 under setting [1] of 3.02 nM.

`Cn1cc(-c2cc(F)c(COc3cccc(-c4cc(F)c(Cc5nc6ccc(C(=O)O)cc6n5[C@H]5COCC5(C)C)cc4F)n3)cn2)cn1` [Example 57] gave an EC50 under setting [1] of 2.06 nM.

In the case of `CC1(C)COC[C@H]1n1c(Cc2cc(F)c(-c3ccnc(OCc4ccc(C#N)cc4F)n3)cc2F)nc2c(F)cc(C(=O)O)cc21` [Example 205, (S)-2-(4-(2-((4-cyano-2-fluorobenzyl)oxy)pyrimidin-4-yl)-2,5-difluorobenzyl)-1-(4,4-dimethyltetrahydrofuran-3-yl)-4-fluoro-1H-benzo[d]imidazole-6-carboxylic acid], the EC50 under setting [1] is 0.097 nM.

`CC1(C)COC[C@H]1n1c(Cc2cc(F)c(-c3ccnc(OCc4ccc(Cl)cc4)n3)cc2F)nc2c(F)cc(C(=O)O)cc21` [Example 230, (S)-2-(4-(2-((4-chlorobenzyl)oxy)pyrimidin-4-yl)-2,5-difluorobenzyl)-1-(4,4-dimethyltetrahydrofuran-3-yl)-4-fluoro-1H-benzo[d]imidazole-6-carboxylic acid] returned an EC50 under setting [1] of 0.034 nM.

`COCCn1c(Cc2cc(F)c(-c3cccc(OCc4ccc(C#N)cc4F)n3)cc2Cl)nc2c(F)cc(C(=O)O)cc21` [Example 351, 2-(2-chloro-4-(6-((4-cyano-2-fluorobenzyl)oxy)pyridin-2-yl)-5-fluorobenzyl)-4-fluoro-1-(2-methoxyethyl)-1H-benzo[d]imidazole-6-carboxylic acid] gave an EC50 under setting [1] of 0.074 nM.

The compound `Cn1cc(-c2cc(F)c(COc3cccc(-c4cc(F)c(Cc5nc6ccc(C(=O)O)cc6n5[C@@H]5COCC5(C)C)cc4F)n3)cn2)nn1` [Example 555, (S)-2-(2,5-difluoro-4-(6-((4-fluoro-6-(1-methyl-1H-1,2,3-triazol-4-yl)pyridin-3-yl)methoxy)pyridin-2-yl)benzyl)-1-(4,4-dimethyltetrahydrofuran-3-yl)-1H-benzo[d]imidazole-6-carboxylic acid] registered an EC50 under setting [1] of 0.047 nM.

In general, EC50 refers to the concentration needed to bring the measured effect to its halfway point. A low value points to an effect from little substance.
